Results published in patent publication US11760744B2, “Fused ring compounds” (Genentech, Inc., priority 2018, dated 2023).

Columns and labels:
[1] = Whole blood stability assay; format: in vitro ADME; settings: fresh whole blood, drug 1 μM, 37° C., 180 minutes incubation
Procedure: Whole Blood Stability Assay A whole blood stability assay was performed using fresh blood with a drug final concentration of 1 μM. The drug-blood mixtures were incubated at 37° C. for 180 minutes.

[2] = biological target: T1, K-Ras G12C (Homo sapiens, UniProt P01116, G12C); experiment: Western blot assay for in cell alkylation of K-Ras G12C (HCC1171 cells); format: cell-based; set-up: endogenous in cells; host or cells: HCC1171; settings: 18 hours at 37° C., 7 point dose response
Procedure, shortened: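 HCC1171 cells exposed to compounds for 18 h at 37° C, lysed, and analysed by SDS-PAGE/western blot with anti-K-Ras antibody and fluorescent secondary. Alkylated K-Ras separated by band shift; % alkylation = FI(alkylated)/(FI(alkylated)+FI(unalkylated))×100, IC50 from 7-point dose response.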
Target sequence in this assay (P01116 1-188 isoform P01116-2 G12C): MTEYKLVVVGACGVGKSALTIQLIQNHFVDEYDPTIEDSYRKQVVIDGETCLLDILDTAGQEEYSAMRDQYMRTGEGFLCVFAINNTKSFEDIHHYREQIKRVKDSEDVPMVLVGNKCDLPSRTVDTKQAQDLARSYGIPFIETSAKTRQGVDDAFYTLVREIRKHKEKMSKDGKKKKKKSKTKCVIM

[3] = biological target: T1, K-Ras G12C; experiment: K-Ras G12C, SOS1, Raf RBD HTRF assay for inhibition of GTP exchange; format: biochemical; set-up: K-Ras G12C (residues 2-188) and SOS1 (residues 564-1049) had N-terminal 6-His; made in house; host or cells: E. coli; settings: 18 hours preincubation with K-Ras G12C at room temperature; SOS1-mediated GTP exchange
Procedure, shortened: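 After 18 h at room temperature with compound, SOS1 (1.25 nM final) started exchange to GTP (150 μM final). C-Raf RBD, Tb-anti-FLAG and D2-anti-his (50, 1 and 12.5 nM) were then added. The 665/615 nm HTRF ratio was read after 2 h; buffer was HEPES/NaCl, 1 mM MgCl2, BSA, Tween-20 and DTT.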
Target sequence in this assay (P01116 2-188 isoform P01116-2 G12C): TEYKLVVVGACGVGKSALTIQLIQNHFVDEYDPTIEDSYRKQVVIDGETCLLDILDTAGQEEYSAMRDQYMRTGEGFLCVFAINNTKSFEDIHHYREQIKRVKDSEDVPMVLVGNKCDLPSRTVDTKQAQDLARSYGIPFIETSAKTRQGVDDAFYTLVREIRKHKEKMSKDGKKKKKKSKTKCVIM

[4] = biological target: T2, K-Ras G12C mutant protein (Homo sapiens, UniProt P01116, G12C); experiment: K-Ras G12C HTRF assay; format: biochemical; settings: Table 1; unit or assay not given; several values in one cell
T2 construct: K-Ras G12C (residues 2-188) and SOS1 (residues 564-1049) had N-terminal 6-His; made in house; host or cells: E. coli
T2 sequence (P01116 2-188 isoform P01116-2 G12C): as above
Procedure: In the above definition of R^2, the electrophilic moiety that is capable of forming a covalent bond with a cysteine residue is determined via K-Ras G12C-alkylation studies and Homogeneous Time Resolved Fluorescence (HTRF) assays. The G12C mutation of the K-Ras gene is a change in amino acid from glycine to cysteine at the 12th amino acid. The compounds according to the present disclosure were discovered using the HTRF assay and the K-Ras G12C-alkylation assay, as further detailed elsewhere herein below, and then NMR spectroscopy was later used to validate the specificity with which the molecule was attaching to G12C.

Work on `C=CC(=O)N1CCN(c2nc(OC[C@@H]3CCCN3C)nc3c2C[C@@H](C)[C@H](c2cccc4c2CCC4)C3)C[C@@H]1CC#N` (single isomer, unassigned) [Example 35d] yielded a half-life at 1 μM [1] of 1.45 h, an EC50 [2] of 0.98 nM and an IC50 [3] of under 10 nM.
For `C=C(F)C(=O)N1CCN(c2nc(OC[C@@H]3C[C@@H](F)CN3C)nc3c2C[C@@H](C)[C@H](c2c(F)c(N)cc(C)c2C(F)(F)F)C3)C[C@H]1CC#N` (single isomer, unassigned) [Example 38c], the half-life at 1 μM [1] was 2.33 h, the EC50 [2] was 24 nM and the IC50 [3] was 15 nM.
`C=C(F)C(=O)N1CCN(c2nc(OC[C@@H]3C[C@@H](F)CN3C)nc3c2C[C@@H](C)[C@H](c2c(F)c(N)cc(C)c2C(F)(F)F)C3)C[C@@H]1CC#N` (single isomer, unassigned) [Example 38b] gave a half-life at 1 μM [1] of over 9 h, an EC50 [2] of 3.2 nM and an IC50 [3] of under 10 nM.
With `C=CC(=O)N1CCN(c2nc(OC[C@@H]3C[C@@H](F)CN3C)nc3c2C[C@@H](CC)[C@H](c2c(F)c(N)cc(C)c2C(F)(F)F)C3)[C@@H](C)C1` (single isomer, unassigned) [Example 37a] the half-life at 1 μM [1] was over 9 h, the EC50 [2] was 4.5 nM and the IC50 [3] was under 10 nM.
In the case of `C=CC(=O)N1CCN(c2nc(OC[C@@H]3CCCN3C)nc3c2C[C@@H](C)[C@H](c2cccc4c2CCC4)C3)C[C@H]1CC#N` (single isomer, unassigned) [Example 35b], the half-life at 1 μM [1] is reported as 1.52 h, the EC50 [2] is reported as 17 nM and the IC50 [3] is reported as 11 nM.
`C=CC(=O)N1CCN(c2nc(OC[C@@H]3C[C@@H](F)CN3C)nc3c2CC[C@H](c2cc(O)cc4ccccc24)C3)[C@@H](C)C1` (single isomer, unassigned) [Example 31a] gave a half-life at 1 μM [1] of 6.83 h, an EC50 [2] of 13 nM and an IC50 [3] of under 10 nM.
`C=CC(=O)N1CCN(c2nc(OCC3CCCN3C)nc3c2CCC(c2cc(O)cc4ccccc24)C3)C(CC#N)C1` (stereo not shown) [Example 60, 2-(4-acryloyl-1-(7-(3-hydroxynaphthalen-1-yl)-2-((1-methylpyrrolidin-2-yl)methoxy)-5,6,7,8-tetrahydroquinazolin-4-yl)piperazin-2-yl)acetonitrile] gave an IC50 [4] of 26 nM, an EC50 [2] of 1300 nM and an IC50 [3] of 26 nM.
`C=CC(=O)N1CCN(c2nc(OC[C@@H]3CCCN3C)nc3c2C[C@@H](C)[C@H](c2nc(N)ccc2C(F)(F)F)C3)[C@@H](C)C1` (single isomer, unassigned) [Example 41b] gave a half-life at 1 μM [1] of 3.33 h, an EC50 [2] of 8.1 nM and an IC50 [3] of under 10 nM.
`C=CC(=O)N1CCN(c2nc(OCC3CCC(=O)N3)nc3c2CCC(c2cc(O)cc4ccccc24)C3)C(C)C1` (stereo not shown) [Example 55, 5-(((4-(4-acryloyl-2-methylpiperazin-1-yl)-7-(3-hydroxynaphthalen-1-yl)-5,6,7,8-tetrahydroquinazolin-2-yl)oxy)methyl)pyrrolidin-2-one] showed an IC50 [4] of 1400 nM.
With `C=CC(=O)N1CC2(CCN(c3nc(OCC4CCCN4C)nc4c3CCC(c3cc(O)cc5ccccc35)C4)CC2)C1` (stereo not shown) [Example 51, 1-[7-[7-(3-hydroxy-1-naphthyl)-2-[(1-methylpyrrolidin-2-yl)methoxy]-5,6,7,8-tetrahydroquinazolin-4-yl]-2,7-diazaspiro[3.5]nonan-2-yl]prop-2-en-1-one] the IC50 [4] was 46 nM, the EC50 [2] was 330 nM and the IC50 [3] was 46 nM.
Work on `C=CC(=O)N1CCN(c2nc(OCC3CCCN3C)nc3c2CC(C)C(c2c(C)ccc4[nH]ncc24)C3)CC1` (stereo not shown) [Example 18, 1-(4-(6-methyl-7-(5-methyl-1H-indazol-4-yl)-2-((1-methylpyrrolidin-2-yl)methoxy)-5,6,7,8-tetrahydroquinazolin-4-yl)piperazin-1-yl)prop-2-en-1-one] yielded an IC50 [4] of 24 nM.
Compound `C=CC(=O)N1CCN(c2ncnc3c2CC(C)C(c2cc(O)cc4ccccc24)C3)CC1` (stereo not shown) [Example 39, 1-(4-(7-(3-hydroxynaphthalen-1-yl)-6-methyl-5,6,7,8-tetrahydroquinazolin-4-yl)piperazin-1-yl)prop-2-en-1-one] has an IC50 [4] of 180 nM, an EC50 [2] of 720 nM and an IC50 [3] of 180 nM.
With `CN1CCCC1COc1nc2c(c(N3CCN(C(=O)/C=C/CNC45CC(C4)C5)C(CC#N)C3)n1)CCC(c1cccc3ccccc13)C2` (stereo not shown) [Example 48, (E)-2-(1-(4-(bicyclo[1.1.1]pentan-1-ylamino)but-2-enoyl)-4-(2-((1-methylpyrrolidin-2-yl)methoxy)-7-(naphthalen-1-yl)-5,6,7,8-tetrahydroquinazolin-4-yl)piperazin-2-yl)acetonitrile] the IC50 [4] was 11 nM.
`C=CC(=O)N1CCN(c2nc(OCCCN3CCOCC3)nc3c2CCC(c2cc(O)cc4ccccc24)C3)C(C)C1` (stereo not shown) [Example 53, 1-(4-(7-(3-hydroxynaphthalen-1-yl)-2-(3-morpholinopropoxy)-5,6,7,8-tetrahydroquinazolin-4-yl)-3-methylpiperazin-1-yl)prop-2-en-1-one] gave an IC50 [4] of 22 nM.
For `C=CC(=O)N1CCN(c2nc(OCC3CCCN3C)nc3c2CCC(c2cc(O)cc4ccccc24)C3)CC1` (stereo not shown) [Example 49, 1-(4-(7-(3-hydroxynaphthalen-1-yl)-2-((1-methylpyrrolidin-2-yl)methoxy)-5,6,7,8-tetrahydroquinazolin-4-yl)piperazin-1-yl)prop-2-en-1-one], the IC50 [4] was 23 nM.
For `COc1ccc(CN(Cc2ccc(OC)cc2)c2cc(C)c(I)c(C3Cc4nc(OCC5CCCN5C)nc(N5CCN(C(=O)OC(C)(C)C)CC5C)c4CC3C)c2F)cc1` (stereo not shown) [Example 14, tert-butyl 4-(7-(3-(bis(4-methoxybenzyl)amino)-2-fluoro-6-iodo-5-methylphenyl)-6-methyl-2-((1-methylpyrrolidin-2-yl)methoxy)-5,6,7,8-tetrahydroquinazolin-4-yl)-3-methylpiperazine-1-carboxylate], the IC50 [4] was over 50000 nM.
For `C=CC(=O)N1CCC(C#N)(c2nc(OCC3CCCN3C)nc3c2CCC(c2cc(O)cc4ccccc24)C3)CC1` (stereo not shown) [Example 7, 1-acryloyl-4-(7-(3-hydroxynaphthalen-1-yl)-2-((1-methylpyrrolidin-2-yl)methoxy)-5,6,7,8-tetrahydroquinazolin-4-yl)piperidine-4-carbonitrile], the IC50 [4] was 87 nM.
Compound `C=CC(=O)N1CCN(c2ncnc3c2CC(C(C)C)C(c2cc(O)cc4ccccc24)C3)CC1` (stereo not shown) [Example 16, 1-(4-(7-(3-hydroxynaphthalen-1-yl)-6-isopropyl-5,6,7,8-tetrahydroquinazolin-4-yl)piperazin-1-yl)prop-2-en-1-one] has an IC50 [4] of 120 nM, an EC50 [2] of 1200 nM and an IC50 [3] of 120 nM.
Work on `C=CC(=O)Oc1cc(C2CCc3c(nc(OCC4CCCN4C)nc3N3CCN(C(=O)C=C)C(CC#N)C3)C2)c2ccccc2c1` (stereo not shown) [Example 59, 4-(4-(4-acryloyl-3-(cyanomethyl)piperazin-1-yl)-2-((1-methylpyrrolidin-2-yl)methoxy)-5,6,7,8-tetrahydroquinazolin-7-yl)naphthalen-2-yl acrylate] yielded an IC50 [4] of 250 nM.
`C=CC(=O)N1CCN(c2ncnc3c2CCC(c2cc(O)cc4ccccc24)C3)CC1` (stereo not shown) [Example 43, 1-[4-[7-(3-hydroxy-1-naphthyl)-5,6,7,8-tetrahydroquinazolin-4-yl]piperazin-1-yl]prop-2-en-1-one] gave an IC50 [4] of 200 nM and an IC50 [3] of 200 nM.
`CN(C)C/C=C/C(=O)Nc1cc2c(Nc3ccc(F)c(Cl)c3)ncnc2cc1O[C@H]1CCOC1` [Afatinib, reference compound] gave a half-life at 1 μM [1] of 1.25 h.
In the case of `C=CC(=O)N1CCN(c2ncnc3c2CCC(c2c(C)ccc4cn[nH]c24)C3)CC1` (stereo not shown) [Example 17, 1-[4-[7-(6-methyl-1H-indazol-7-yl)-5,6,7,8-tetrahydroquinazolin-4-yl]piperazin-1-yl]prop-2-en-1-one], the IC50 [4] is reported as 700 nM, the EC50 [2] is reported as 6700 nM and the IC50 [3] is reported as 700 nM.
With `C=CC(=O)N1CC(C)N(c2nc(OCC3CCCN3C)nc3c2CCC(c2cc(O)cc4ccccc24)C3)C(C)C1` (stereo not shown) [Example 56, 1-(4-(7-(3-hydroxynaphthalen-1-yl)-2-((1-methylpyrrolidin-2-yl)methoxy)-5,6,7,8-tetrahydroquinazolin-4-yl)-3,5-dimethylpiperazin-1-yl)prop-2-en-1-one] the IC50 [4] was 73 nM.
Compound `C=CC(=O)N1CCN(c2ncnc3c2CCC(c2c(C)ccc4[nH]ncc24)C3)CC1` (racemic) [Example 2, 1-(4-(7-(5-methyl-1H-indazol-4-yl)-5,6,7,8-tetrahydroquinazolin-4-yl)piperazin-1-yl)prop-2-en-1-one] has an IC50 [4] of 840 nM, an EC50 [2] of 6100 nM and an IC50 [3] of 840 nM.
`C=CC(=O)N1CCN(c2nc(OCc3cn(C)cn3)nc3c2CCC(c2cc(O)cc4ccccc24)C3)C(C)C1` (stereo not shown) [Example 54, 1-(4-(7-(3-hydroxynaphthalen-1-yl)-2-((1-methyl-1H-imidazol-4-yl)methoxy)-5,6,7,8-tetrahydroquinazolin-4-yl)-3-methylpiperazin-1-yl)prop-2-en-1-one] showed an IC50 [4] of 470 nM.
